≈ marks a conversion by molar mass, not a printed value.
How the values were obtained:
[1] = tested on: Candida albicans ATCC 24433; assay: disk diffusion assay; assay type: cell-based; for diameter of the zone of inhibition, Candida albicans ATCC 24433: key: R = resistant
[2] = tested on: Saccharomyces cerevisiae ATCC 9763; assay: disk diffusion assay; assay type: cell-based; conditions: A3-5-1 10 micrograms; Flucytosine 10 micrograms; RPMI-glucose agar 35° C.
Candida krusei ATCC 6258 = assay: disk diffusion assay; assay type: cell-based
[3] = tested on: Candida albicans ATCC 90028; assay: disk diffusion assay; assay type: cell-based; for diameter of the zone of inhibition, Candida albicans ATCC 90028: key: R = resistant
[4] = tested on: Candida tropicalis ATCC 750; assay: disk diffusion assay; assay type: cell-based; for diameter of the zone of inhibition, Candida tropicalis ATCC 750: key: R = resistant
[5] = tested on: Candida glabrata ATCC 2001; assay: disk diffusion assay; assay type: cell-based; for diameter of the zone of inhibition, Candida glabrata ATCC 2001: key: R = resistant
[6] = tested on: Candida parasdosis ATCC 90018; assay: disk diffusion assay; assay type: cell-based, Candida parapsilosis; for diameter of the zone of inhibition, Candida parasdosis ATCC 90018: key: R = resistant
[7] = tested on: Candida parasilosis ATCC 22019; assay: disk diffusion assay; assay type: cell-based, Candida parapsilosis; for diameter of the zone of inhibition, Candida parasilosis ATCC 22019: key: R = resistant
[8] = tested on: Cryptococcus neoformans ATCC 32045; assay: disk diffusion assay; assay type: cell-based; conditions: A3-5-1 10 micrograms; Flucytosine 10 micrograms; RPMI-glucose agar 35° C.
[9] = tested on: Enterococcus faecium ATCC 49624; assay: disk diffusion assay; assay type: cell-based; conditions: 10 micrograms per disk; ciprofloxacin 5, vancomycin 30 micrograms per disk; 35° C.
[10] = tested on: Enterococcus faecium ATCC 51559; assay: disk diffusion assay; assay type: cell-based; conditions: 10 micrograms per disk; ciprofloxacin 5, vancomycin 30 micrograms per disk; 35° C.
[11] = tested on: RNA synthesis in Bacillus subtilis; assay: macromolecular synthesis whole cell assay, [3H]uridine incorporation; assay type: cell-based; conditions: 1×MIC
[12] = tested on: Cell wall synthesis in Bacillus subtilis; assay: macromolecular synthesis whole cell assay, [3H]N-acetyl glucosamine incorporation; assay type: cell-based; conditions: 1×MIC
[13] = tested on: M. tuberculosis H37Rv (ATCC 25618) (drug sensitive); assay: IC50 in Mycobacteria 7H11 agar; assay type: cell-based, Mycobacterium tuberculosis; conditions: Mycobacterium tuberculosis; 7H11 agar with 10% OADC
B. subtilis 1A757 = assay: microbe, parasite or virus in culture; assay type: cell-based, Bacillus subtilis
Cryptococcus neoformans = assay: microbroth dilution MIC
Aspergillus fumigatus = assay: microbroth dilution MIC
Candida albicans = assay: microbroth dilution MIC
[14] = tested on: Plasmodium falciparum strain CSC-1 (Honduras); assay: antimalarial assay, 3H-phenylalanine radiobioassay in human red blood cells; conditions: for IC50 Plasmodium falciparum: human red blood cells, 3H-phenylalanine, standard deviation of the mean, three experiments
[15] = tested on: Human Primary Mammary Epithelial HMEC; assay: CellTiter 96 Aqueous Non-Radioactive Cell Proliferation Assay; assay type: cell-based; conditions: 48 hours; Table 7
Method: (§1) The munumbicins were then tested against three human cancer cell lines (ATCC) and human primary mammary epithelial cells (HMECs) (Clonetics; Biowhittaker, Walkersville, Md.) using a CellTiter 96® Aqueous Non-Radioactive Cell Proliferation Assay kit from Promega (Madison, Wis.). The cell lines were A-549 (lung epithelial carcinoma, ATCC CCL-185), ME-180 (cervical epithelial epidermoid carcinoma, ATCC HTB-33), and BT-20 (breast epithelial cancer, ATCC HTB-19), and were grown in the media recommended by ATCC. The primary mammary cells were cultured as recommended by the manufacturer in mammary epithelial cell growth media (MEGM®). […] After seeding, the cells were incubated for five hours at 37° C. before addition of the munumbicins. Two-fold serial dilutions of the munumbicins were made in the culture medium, and a volume equal to that of the seeded cells for each dilution was added to three wells of cells. Each plate also contained some wells with cells plus medium only and some wells with medium only. […] The A-549 and ME-180 cells were incubated for 48 hours. […] The plates were incubated at 37° C. for one to four hours, and the OD490 was determined. The OD reading of all wells was corrected for background by subtracting the reading of wells containing medium only. […] Kakadumycin A was tested against three human cancer cell lines (ATCC) and human primary mammary epithelial cells using the procedure described above for the munumbicins. Kadadumycin B was tested against one human cancer cell line.

[16] = tested on: Human Lung Cancer Epithelial A549; assay: as above; assay type: cell-based; conditions: 48 hours, Table 7
Method: as §1

[17] = tested on: Human Breast Cancer Epithelial BT-20; assay: as above; assay type: cell-based; conditions: 96-144 hours; Table 7
Method: as §1

[18] = tested on: Human Cervical Cancer Epithelial ME180; assay: as above; assay type: cell-based; conditions: 48 hours, Table 7
Method: as §1

[19] = tested on: Staphyloccus aureus MH II Eli Lilly Co.; assay: microbroth dilution MIC; conditions: drug sensitive strain
[20] = tested on: Enterococcus faecalis ATCC 29212; assay: disk diffusion assay; assay type: cell-based; conditions: 10 micrograms per disk; ciprofloxacin 5, vancomycin 30 micrograms per disk; 35° C.
[21] = tested on: Pseudomonas aeruginosa ATCC 27853; assay: disk diffusion assay; assay type: cell-based; conditions: 10 micrograms per disk; ciprofloxacin 5, vancomycin 30 micrograms per disk; 35° C. Note: key: R = resistant.
[22] = tested on: Neisseria gonnorhea ATCC 49226; assay: disk diffusion assay; assay type: cell-based; conditions: 10 micrograms per disk; ciprofloxacin 5, vancomycin 30 micrograms per disk; GC agar with 1% growth supplement with 5% CO2
[23] = tested on: Enterococcus faecalis ATCC 51299; assay: disk diffusion assay; assay type: cell-based; conditions: 10 micrograms per disk; ciprofloxacin 5, vancomycin 30 micrograms per disk; 35° C.
[24] = tested on: Shigella dysenteriae ATCC 11835; assay: disk diffusion assay; assay type: cell-based; conditions: 10 micrograms per disk; 35° C.
S. epidermis ATCC 12228 = assay: disk diffusion assay; assay type: cell-based, Staphylococcus epidermidis; conditions: 10 micrograms per disk; 35° C.
Vibrio fischeri PIC 345 = assay: disk diffusion assay; assay type: cell-based; conditions: 10 micrograms per disk; ciprofloxacin 5, vancomycin 30 micrograms per disk; 35° C.
brine shrimp = brine shrimp assays; conditions: preliminary assays
[25] = tested on: Acinetobacter sp. ATCC 49137; assay: disk diffusion assay; assay type: cell-based; conditions: 10 micrograms per disk; ciprofloxacin 5, vancomycin 30 micrograms per disk; grown at 30° C.
[26] = tested on: Streptococcus pneumoniae ATCC 49619; assay: disk diffusion assay; assay type: cell-based; conditions: 10 micrograms per disk; ciprofloxacin 5, vancomycin 30 micrograms per disk; MHA with 5% dsb. and 5% CO2
[27] = tested on: Staphylococcus aureus ATCC 29213; assay: disk diffusion assay; assay type: cell-based; conditions: 10 micrograms per disk; ciprofloxacin 5, vancomycin 30 micrograms per disk; 35° C.
[28] = tested on: S. maltophilia ATCC 13637; assay: disk diffusion assay; assay type: cell-based, Stenotrophomas maltophilia; conditions: 10 micrograms per disk; 35° C.
[29] = tested on: Escherichia coli ATCC 25922; assay: disk diffusion assay; assay type: cell-based; conditions: 10 micrograms per disk; penicillin G 10 units per disk; 35° C. Note: key: R = resistant.
Sclerotinia sclerotiorum = assay: microbroth dilution MIC, plant associated microorganisms; assay type: cell-based; conditions: PD broth, 48 hours at 23° C.
Method: (§2) Incubation was for 48 hours at 23° C. A plant pathogenic strain of Pseudomonas syringae was also tested using the same PD broth medium and with concentrations of colony forming units as given above. The organisms were obtained from the Montana State University plant pathogen culture collection administered by Dr. […] The relative activities against plant pathogenic fungi ranged from a few tenths of a microgram up to thirty micrograms. Table 2 provides the results of tests of inhibitory activity of the munumbicins against various plant-pathogenic fungi and one pathogenic bacterium. The data are reported as MIC values in micrograms/ml.

Phytophthora cinnamomi = assay: as above; assay type: cell-based; conditions: PD broth, 48 hours at 23° C.
Method: as §2

Geotrichum candidum = assay: as above; assay type: cell-based; conditions: PD broth, 48 hours at 23° C.
Method: as §2

Pseudomonas syringae = assay: as above; assay type: cell-based; conditions: PD broth
Method: as §2

Pythium ultimum = assay: as above; assay type: cell-based; conditions: PD broth, 48 hours at 23° C.
Method: as §2

Rhizoctonia solani = assay: as above; assay type: cell-based; conditions: PD broth, 48 hours at 23° C.
Method: as §2

[30] = A3-5-1 10 micrograms, Flucytosine 10 micrograms, RPMI-glucose agar 35° C.

With `Nc1[nH]c(=O)ncc1F` [Flucytosine, reference compound] the “Disk Diffusion, Candida albicans 24433” value [1, 30] was 20 mm, the “Disk Diffusion, Saccharomyces cerevisiae 9763” value [2] was 50 mm and the “Disk Diffusion, Candida krusei 6258” value (Candida krusei ATCC 6258; [30]) was 7 mm. For the same compound, the “Disk Diffusion, Candida albicans 90028” value [3, 30] was 37 mm, the “Disk Diffusion, Candida tropicalis 750” value [4, 30] was 47 mm and the “Disk Diffusion, Candida glabrata 2001” value [5, 30] was 53 mm. The “Disk Diffusion, Candida parapsilosis 90018” value [6, 30] was 57 mm, the “Disk Diffusion, Candida parapsilosis 22019” value [7, 30] was 46 mm and the “Disk Diffusion, Cryptococcus neoformans 32045” value [8] was 42 mm.
In the case of Penicillin, the “diameter of the zone of inhibition, Enterococcus faecium ATCC 49624” value [9] is reported as 21 mm and the “diameter of the zone of inhibition, Enterococcus faecium ATCC 51559” value [10] is reported as 0 mm.
`CO[C@H]1/C=C/O[C@@]2(C)Oc3c(C)c(O)c4c(O)c(c(/C=N/N5CCN(C)CC5)c(O)c4c3C2=O)NC(=O)/C(C)=C\C=C\[C@H](C)[C@H](O)[C@@H](C)[C@@H](O)[C@@H](C)[C@H](OC(C)=O)[C@@H]1C` [Rifampicin, reference compound] was tested, and the “% [3H]uridine (RNA synthesis) incorporation of that of the untreated culture” value ([11]; 5 min) was 13%, the “% [3H]uridine (RNA synthesis) incorporation of that of the untreated culture” value ([11]; 10 min) was 15% and the “% [3H]N-acetyl glucosamine (Cell wall synthesis) incorporation of that of the untreated culture” value ([12]; 5 min) was 47%. The “% [3H]N-acetyl glucosamine (Cell wall synthesis) incorporation of that of the untreated culture” value ([12]; 10 min) was 48%, the IC50 [13] was less than 1000 ng/mL and the “1×MIC against Bacillus subtilis” value (B. subtilis 1A757) was 0.25 micrograms/ml.
`C[C@@H]1[C@H](O)[C@@H](C)/C=C/C=C/C=C/C=C/C=C/C=C/C=C/[C@H](O[C@@H]2O[C@H](C)[C@@H](O)[C@H](N)[C@@H]2O)C[C@@H]2O[C@](O)(C[C@@H](O)C[C@@H](O)[C@H](O)CC[C@@H](O)C[C@@H](O)CC(=O)O[C@H]1C)C[C@H](O)[C@H]2C(=O)O` [Amphotericin B, reference compound] was tested, and the “MIC Cryptococcus neoformans” value (Cryptococcus neoformans) was 0.13 micrograms/ml, the “MIC Aspergillus fumigatus” value (Aspergillus fumigatus) was 0.62 micrograms/ml and the “MIC Candida albicans” value (Candida albicans) was 1.25 micrograms/ml.
With `CCN(CC)CCCC(C)Nc1ccnc2cc(Cl)ccc12` (stereo not drawn) [Chloroquine, reference compound] the IC50 ([14]; Plasmodium falciparum, Erythrocyte, read-out: IC50 Plasmodium falciparum) was 7 ng/mL (≈ 0.0219 µM) and the “IC50 Plasmodium falciparum” value [14] was 7.0 ± 0 ng/mL (≈ 0.0219 µM).
With munumbicin D the “IC50 Human Primary Mammary Epithelial HMEC” value [15] was 0.425 micrograms/ml, the “IC50 Human Lung Cancer Epithelial A549” value [16] was 2.6 micrograms/ml and the “IC50 Human Breast Cancer Epithelial BT-20” value [17] was 0.07 micrograms/ml. For the same compound, the “IC50 Human Cervical Cancer Epithelial ME180” value [18] was 0.2 micrograms/ml, the “concentration causing detectable lysis of human red blood cells” value (human red blood cells) was greater than 80 micrograms/ml and the “MIC Staphyloccus aureus MH II Eli Lilly Co.” value [19] was 0.4 micrograms/ml. The “diameter of the zone of inhibition, Enterococcus faecalis ATCC 29212” value [20] was 16 mm, the “diameter of the zone of inhibition, Pseudomonas aeruginosa ATCC 27853” value [21] was “R” and the “diameter of the zone of inhibition, Neisseria gonnorhea ATCC 49226” value [22] was 9 mm. The “diameter of the zone of inhibition, Enterococcus faecalis ATCC 51299” value [23] was 16 mm, the “diameter of the zone of inhibition, Shigella dysenteriae ATCC 11835” value [24] was “R” and the “MIC Cryptococcus neoformans” value (Cryptococcus neoformans) was 10 micrograms/ml. The “IC50 Plasmodium falciparum” value [14] was 4.5 ± 0.7 ng/mL, the “diameter of the zone of inhibition, S. epidermis ATCC 12228” value (S. epidermis ATCC 12228) was 14 mm and the “diameter of the zone of inhibition, Candida albicans ATCC 24433” value ([1]; 10 micrograms per disk, 35° C.) was “R”. The “diameter of the zone of inhibition, Vibrio fischeri PIC 345” value (Vibrio fischeri PIC 345) was 12 mm, the “MIC Aspergillus fumigatus” value (Aspergillus fumigatus) was 20 micrograms/ml and the “diameter of the zone of inhibition, Candida krusei ATCC 6258” value (Candida krusei ATCC 6258; 10 micrograms per disk, 35° C.) was “R”. For the same compound, the LC50 brine shrimp (brine shrimp) was 1.7 micrograms/ml, the “diameter of the zone of inhibition, Acinetobacter sp. ATCC 49137” value [25] was “R” and the “diameter of the zone of inhibition, Streptococcus pneumoniae ATCC 49619” value [26] was 16 mm. The “diameter of the zone of inhibition, Candida albicans ATCC 90028” value ([3]; 10 micrograms per disk, 35° C.) was “R”, the “diameter of the zone of inhibition, Candida tropicalis ATCC 750” value ([4]; 10 micrograms per disk, 35° C.) was “R” and the “diameter of the zone of inhibition, Candida glabrata ATCC 2001” value ([5]; 10 micrograms per disk, 35° C.) was “R”. For the same compound, the “diameter of the zone of inhibition, Candida parasdosis ATCC 90018” value ([6]; 10 micrograms per disk, 35° C.) was “R”, the “diameter of the zone of inhibition, Candida parasilosis ATCC 22019” value ([7]; 10 micrograms per disk, 35° C.) was “R” and the “diameter of the zone of inhibition, Staphylococcus aureus ATCC 29213” value [27] was 13 mm. The “diameter of the zone of inhibition, S. maltophilia ATCC 13637” value [28] was “R”, the “MIC Candida albicans” value (Candida albicans) was greater than 10 micrograms/ml and the “diameter of the zone of inhibition, Escherichia coli ATCC 25922” value [29] was “R”. The “MIC Sclerotinia sclerotiorum” value (Sclerotinia sclerotiorum) was 2.0 micrograms/ml, the “MIC Phytophthora cinnamomi” value (Phytophthora cinnamomi) was 15.6 micrograms/ml and the “MIC Geotrichum candidum” value (Geotrichum candidum) was 31.2 micrograms/ml. The “MIC Pseudomonas syringae” value (Pseudomonas syringae) was 0.2 micrograms/ml, the “MIC Pythium ultimum” value (Pythium ultimum) was 0.4 micrograms/ml and the “MIC Rhizoctonia solani” value (Rhizoctonia solani) was 15.6 micrograms/ml.
`CC[C@H]1OC(=O)[C@H](C)[C@@H](O[C@H]2C[C@@](C)(OC)[C@@H](O)[C@H](C)O2)[C@H](C)[C@@H](O[C@@H]2O[C@H](C)C[C@H](N(C)C)[C@H]2O)[C@](C)(O)C[C@@H](C)C(=O)[C@H](C)[C@@H](O)[C@]1(C)O` [Erythromycin, reference compound] was tested, and the IC50 ([16]; Homo sapiens, A549, read-out: IC50 Human Lung Cancer Epithelial A549) was greater than 40000 ng/mL and the IC50 ([18]; Homo sapiens, ME-180, read-out: IC50 Human Cervical Cancer Epithelial ME180) was greater than 40000 ng/mL.
